From patent US7794994B2 (Kemeta, LLC, priority 2001, dated 2010)
Several values for one entry are separate records, joined by “and”; a condition that tells them apart may be missing. Equal entries are not always repeated.

How the values were obtained:
S-ADH from strain IP-1 = experiment: S-ADH spectrophotometric assay, partially purified S-ADH of isolate IP-1; format: biochemical, isopropanol-grown bacterial strain TDCC IP-1; conditions: for Relative S-ADH Activity (%) IP-1, alcohol oxidation: alcohol oxidation rates, pH 7.6, 2.5 mM substrate, 0.2 mM NAD+, 2-propanol = 100, NA = no activity detected; for Relative S-ADH Activity (%) IP-1, ketone reduction: ketone reduction rates, pH 6.2, 2.5 mM substrate, 0.2 mM NADH, acetone = 100
Description: Protein purifications. […] Secondary alcohol dehydrogenase (S-ADH) from X. autotrophicus Py2 was purified via the following protocol. Cell-free extracts (380 mL) of isopropanol-grown X. autotrophicus Py2 (150 g) were prepared as described above, and applied to a 5×15 cm column of DEAE-Sepharose FAST FLOW (Diethylaminoethyl cross-linked agarose bead material; Catalog number 17-0709-10, Amersham Pharmacia Biotech, Piscataway, N.J.)) equilibrated in buffer A (25 mM MOPS (3-(N-morpholino)propanesulfonic acid), pH 7.6, 5% glycerol, 1 mM dithiothreitol) at a flow rate of 10 mL/min. After loading, the column was washed with […] buffer A and developed with a 2400 mL linear gradient of 90-290 mM KCl in buffer A. Fractions containing S-ADH activity were pooled and dialyzed against 2 L of 25 mM potassium phosphate (pH 6.2) containing 5% glycerol (buffer B) for 16 h at 4° C. […] After washing the column with 30 mL of buffer B, S-ADH was eluted with 20 mL of buffer A containing 10 mM NAD^+. Fractions containing S-ADH were then dialyzed against 2 L of buffer A for 16 h at 4° C., concentrated by ultrafiltration (using a YM30 ultrafiltration membrane; catalog no. 13722, from Millipore, Bedford, Mass.), and frozen in liquid nitrogen. Partially purified S-ADH from bacterial screen cultures was prepared as follows: cell-free extracts from 1 to 5 g of cell paste were prepared as described above and applied to a 5 mL HI TRAP Q column (quaternary, tetraethylammonium, cross-linked agarose bead material for use as an anion exchange matrix; catalog number 17-1153-01, Amersham Pharmacia Biotech) equilibrated in 100 mM MOPS, pH 7.6, containing 5% (v/v) glycerol (buffer C). The column was washed with 10 mL buffer C and developed with a 100 mL linear gradient of 0 to 100 mM NaCl in buffer C. Fractions containing S-ADH activity were pooled, concentrated to 0.5 mL using a 30 kDa MWCO (“molecular weight cut-off”) centrifugal membrane (catalog number UFV4BTK25, Millipore), and stored at −80° C.
(§1) Assays were performed in 2 mL quartz cuvettes and contained NAD(H) (0.2 mM), potassium phosphate buffer (25 mM), and a source of enzyme (cell-free extracts, column fractions, or purified enzyme) in a total reaction volume of 1 mL at pH 6.2 ([…]) at 30° C. Assays were pre-incubated for 1.5 min. at 30° C. with all assay components except substrate. Assays were initiated by addition of substrate (2.5 mM) and monitored over time by measuring the change in absorbance at 340 nm (∈340 of 6.22 mM^−1·cm^−1 for NADH).

S-ADH from C. boidinii = experiment: S-ADH spectrophotometric assay, C. boidinii S-ADH; format: biochemical, Candida boidinii; conditions: pH 7.6, 5 mM substrate; for Relative S-ADH Activity (%) C. boidinii, alcohol oxidation: alcohol oxidation rates, 0.2 mM NAD+, 2-propanol = 100; for Relative S-ADH Activity (%) C. boidinii, ketone reduction: ketone reduction rates, 0.2 mM NADH, acetone = 100
Description: as §1, with “Assays were initiated by addition of substrate (2.5 mM) and monitored over time by measuring the change in absorbance at 340 nm (∈340 of 6.22 mM^−1·cm^−1 for NADH).” left out

[1] = test system: S-ADH from X. autotrophicus strain Py2; experiment: Secondary alcohol dehydrogenase NADH oxidation spectrophotometric assay; format: biochemical, Xanthobacter autotrophicus strain Py2; conditions: for specific activity, alcohol oxidation: at pH 7.8; for inhibition of S-ADH activity: saturating acetone, alcohol at about 13-fold over the Km value for acetone, data not shown; for Relative S-ADH Activity (%) X. Py2, alcohol oxidation: alcohol oxidation rates, pH 7.6, 2.5 mM substrate, 0.2 mM NAD+, 2-propanol = 100, NA = no activity detected; for Relative S-ADH Activity (%) X. Py2, ketone reduction: ketone reduction rates, pH 6.2, 2.5 mM substrate, 0.2 mM NADH, acetone = 100
Description: as §1
Data analysis. Kinetic constants (Km and Vmax) were calculated by fitting initial rate data to the Michaelis-Menten equation and using the software KaleidaGraph Fourth Edition, (Synergy Software, Reading, Pa.).

Structure (SMILES) | Relative S-ADH Activity (%) IP-1, alcohol oxidation (S-ADH from strain IP-1) [%] | Relative S-ADH Activity (%) C. boidinii, alcohol oxidation (S-ADH from C. boidinii) [%] | specific activity, alcohol oxidation [1] | inhibition of S-ADH activity [1] | Relative S-ADH Activity (%) X. Py2, alcohol oxidation [1] [%] | Relative S-ADH Activity (%) IP-1, ketone reduction (S-ADH from strain IP-1) [%] | Relative S-ADH Activity (%) C. boidinii, ketone reduction (S-ADH from C. boidinii) [%] | Relative S-ADH Activity (%) X. Py2, ketone reduction [1] [%] | Km ([1]; reduction of acetone to isopropanol, NADH at fixed saturating concentration, read-out: apparent Km) | S-ADH activity in the presence of ethanol ([1]; 41 mM ethanol, equivalent to 500 ppm (v/v) gas phase ethanol)
CCCO [1-Propanol] | 2 | 9 | No activity | no inhibition was observed | – | – | – | – | – | –
CCC(C)O (stereo not drawn) [2-Butanol] | 147 | 100 | 21±3.6 μmol alcohol oxidized min^−1mg^−1 protein and 37±1.1 μmol alcohol oxidized min^−1mg^−1 protein | – | 88 | – | – | – | – | –
CCC(C)=O [2-Butanone] | – | – | – | – | – | 192 | 175 | 170 | – | –
CC(C)O [2-Propanol] | 100 | 100 | 24±1.8 μmol alcohol oxidized min^−1mg^−1 protein | – | 100 | – | – | – | – | –
CC(C)=O [Acetone, acetone] | – | – | – | – | – | 100 | 100 | 100 | ~144 µM and 144 µM | –
CCO [Ethanol] | 9 | 9 | No activity | no inhibition was observed | – | – | – | – | – | 82-85%
